Assay results published in ChEMBL document CHEMBL3046537, “Tautomeric origin of dual effects of N1-nicotinoyl-3-(4-hydroxy-3-methyl phenyl)-5-[(sub)phenyl]-2-pyrazolines on bacterial and viral strains: POM analyses as new efficient bioinformatics platform to predict and optimize bioactivity of drugs” (Med Chem Res, 2013).

What was measured:
[1] = system: Escherichia coli; experiment: Antibacterial activity against Escherichia coli 2231; format: functional
[2] = system: Pichia kudriavzevii; experiment: Antifungal activity against Pichia kudriavzevii G03; format: functional
[3] = system: Candida albicans; experiment: Antifungal activity against Candida albicans; format: functional
[4] = system: Nakaseomyces glabratus; experiment: Antifungal activity against Candida glabrata H05; format: functional
[5] = system: Candida albicans; experiment: Antifungal activity against Candida albicans ATCC 10231; format: functional
[6] = system: Aspergillus fumigatus; experiment: Antifungal activity against Aspergillus fumigatus; format: functional
[7] = system: Staphylococcus aureus; experiment: Antibacterial activity against Staphylococcus aureus 209P; format: functional
[8] = system: Human immunodeficiency virus; experiment: Antiviral activity against Human immunodeficiency virus assessed as protection against virus-induced cytopathogenicity; format: functional; design: concentration or dose not given beside the values
[9] = system: Human immunodeficiency virus; experiment: Antiviral activity against Human immunodeficiency virus; format: functional, organism-based; settings: Human immunodeficiency virus 1

Row | SMILES | inhibition zone (IZ) [1] [mm] | inhibition zone (IZ) [2] [mm] | inhibition zone (IZ) [3] [mm] | inhibition zone (IZ) [4] [mm] | inhibition zone (IZ) [5] [mm] | inhibition zone (IZ) [6] [mm] | inhibition zone (IZ) [7] [mm] | Activity [8] [%] | IC50 [9] [µM]
1 | Cc1cc(C2=CC(c3c(Cl)cccc3Cl)N(C(=O)c3ccncc3)N2)ccc1O (stereo not given) | >15 | 5 | >15 | 10 | >15 | >15 | >15 | 24 | > 14
2 | Cc1cc(C2=CC(c3ccccc3)N(C(=O)c3ccncc3)N2)ccc1O (stereo not given) | 5 | <5 | <5 | <5 | <5 | 5 | 5 | 13 | > 11
3 | COc1ccc(C2C=C(c3ccc(O)c(C)c3)NN2C(=O)c2ccncc2)cc1OC (stereo not given) | 10 | <5 | 5 | <5 | <5 | 10 | 10 | 24 | > 14
4 | COc1cc(C2C=C(c3ccc(O)c(C)c3)NN2C(=O)c2ccncc2)cc(OC)c1OC (stereo not given) | 5 | <5 | 5 | <5 | <5 | 5 | 5 | 26 | > 66
5 | Cc1cc(C2=CC(c3ccco3)N(C(=O)c3ccncc3)N2)ccc1O (stereo not given) | >15 | <5 | 5 | <5 | <5 | >15 | >15 | 86 | 7
6 | Cc1cc(C2=CC(c3ccc(F)cc3)N(C(=O)c3ccncc3)N2)ccc1O (stereo not given) | >15 | <5 | >15 | <5 | <5 | >15 | >15 | 8 | > 68
7 | Cc1cc(C2=CC(c3ccccc3Cl)N(C(=O)c3ccncc3)N2)ccc1O (stereo not given) | >15 | <5 | <5 | <5 | <5 | >15 | >15 | 24 | > 53
8 | Cc1cc(C2=CC(c3cccc([N+](=O)[O-])c3)N(C(=O)c3ccncc3)N2)ccc1O (stereo not given) | >15 | <5 | <5 | <5 | <5 | >15 | >15 | 40 | > 11
9 | COc1ccc(C2C=C(c3ccc(O)c(C)c3)NN2C(=O)c2ccncc2)cc1 (stereo not given) | 10 | <5 | <5 | <5 | <5 | 5 | 5 | 24 | > 125
10 | Cc1cc(C2=CC(c3ccc(Cl)cc3)N(C(=O)c3ccncc3)N2)ccc1O (stereo not given) | >15 | <5 | >15 | <5 | <5 | >15 | >15 | 42 | > 36
11 | Cc1cc(C2=CC(c3ccc(N(C)C)cc3)N(C(=O)c3ccncc3)N2)ccc1O (stereo not given) | >15 | 5 | >15 | 10 | 10 | >15 | >15 | 102 | 6
12 | OC(Cn1cncn1)(Cn1cncn1)c1ccc(F)cc1F [FLUCONAZOLE] | <5 | >15 | >15 | >15 | >15 | >15 | <5 | – | –
13 | Cc1ccnc2c1NC(=O)c1cccnc1N2C1CC1 [NEVIRAPINE] | – | – | – | – | – | – | – | 98 | 0.1
14 | CC1COc2c(N3CCN(C)CC3)c(F)cc3c(=O)c(C(=O)O)cn1c23 (stereo not given) [OFLOXACIN] | >15 | <5 | <5 | <5 | <5 | <5 | >15 | – | –
